These results are taken from patent US7091202B2, “4-arylspirocycloalkyl-2-aminopyrimidine carboxamide KCNQ potassium channel modulators” (Bristol-Myers Squibb Company, priority 2004, dated 2006).

This assay has as its target T1, hQ23 (HEK-293 cell line stably transfected with one of the members of the KCNQ family) (Homo sapiens, UniProt O43525+O43526).
T1 construct: expressed in transfected cells; host or cells: HEK-293, stably transfected
The experiment in a line: Thallium flux assay for KCNQ channel blockers (FLIPR, BTC dye). Format: cell-based. The conditions noted are these: thallium flux. The method, then:
Thallium Flux Assay for KCNQ channel blockers. Approximately 20,000 cells/well of an HEK-293 cell line stably transfected with one of the members of the KCNQ family were plated into clear-bottom, black-walled, poly-D-lysine coated, 384 well assay plates in 20 μl/well of low chloride plating medium. Low chloride plating medium was composed of the following: sodium gluconate, 109 mM; potassium gluconate, 5.4 mM; hemi-calcium gluconate, 3.6 mM; magnesium sulfate, 0.8 mM; sodium bicarbonate, 26.2 mM; sodium phosphate monobasic, 1.2 mM; glutamine, 2 mM; glucose, 5 mM; HEPES (pH 7.3) 10 mM, 10× concentration of vitamins (Gibco/LifeTechnologies catalog #11120-052) and 1× concentration of amino acids (Gibco/LifeTechnologies catalog #11130-051).
Following overnight incubation in a 5% CO2 incubator at 37° C., the cells in the plates were loaded with 20 μl/well of a dye loading solution containing the acetomethoxy ester of the thallium-sensitive fluorescent dye BTC, BTC-AM (2 μM) and pluronic acid (0.02% w/v) in chloride free assay buffer. Chloride free assay buffer was composed of the following: sodium gluconate, 140 mM; potassium gluconate, 2.5 mM; hemi-calcium gluconate, 6 mM; hemi-magnesium gluconate, 2 mM; glucose, 5 mM; HEPES (pH 7.3), 10 mM.
Following incubation in the dye loading solution for from 45–90 min at room temperature, the dye loading solution was removed by aspiration and replaced with 40 μl/well of chloride free assay buffer.
Prior to addition to cell plates, test compound and standard compounds were dissolved in DMSO to 3 mM concentration. Compounds were then diluted from the 3 mM stock to 100-fold over the final assay concentration in DMSO. Finally, compounds in DMSO were diluted from 100-fold over the final assay concentration to 5-fold over the final assay concentration in chloride free assay buffer.
Ten μl/well of compounds at 5-fold over the final assay concentration were then added to the cell plates. This represents a 1:5 dilution, yielding the final test concentration. The wells used for test compounds were A1–P20. Wells A21–P22 contained a standard ‘blocker’ and a fully efficacious concentration (positive control). Wells A23–P24 contained chloride free assay buffer containing 1% DMSO (negative control).
Following addition of test compounds, the plates were loaded onto the Molecular Devices FLIPR. The 488 nm line of the argon laser was used to excite the BTC and the emission filter was a 540(+/−30) nm. Images were collected at 1 Hz. Ten seconds of baseline were collected and then the FLIPR was used to add 13 μl/well of a stimulus buffer composed of Tl2SO4, 25 mM; sodium gluconate, 30 mM; potassium sulfate, 50 mM; hemi-calcium gluconate, 6 mM; hemi-magnesium gluconate, 2 mM; glucose, 5 mM; HEPES (pH 7.3), 10 mM in chloride free assay buffer. Images were collected for an additional 60 seconds.
For data analysis, the amplitude of the average of the negative controls was subtracted from all wells. The amplitudes of the test compounds were then compared to the value of four standard deviations of the negative control wells. The lowest concentration of a test compound sufficient to generate a signal amplitude greater than or equal to four standard deviations from the amplitude of the negative controls was defined as the minimal active concentration.
For generating IC50 values, compounds were serially diluted in 1:3 volume increments to produce a 10 point concentration series. IC50 values were calculated by fitting the resulting amplitudes to a single-site logistic equation. IC50 was defined as the concentration of test compound required to yield 50% of the response of the positive control.

T1 sequence (O43526 whole entry): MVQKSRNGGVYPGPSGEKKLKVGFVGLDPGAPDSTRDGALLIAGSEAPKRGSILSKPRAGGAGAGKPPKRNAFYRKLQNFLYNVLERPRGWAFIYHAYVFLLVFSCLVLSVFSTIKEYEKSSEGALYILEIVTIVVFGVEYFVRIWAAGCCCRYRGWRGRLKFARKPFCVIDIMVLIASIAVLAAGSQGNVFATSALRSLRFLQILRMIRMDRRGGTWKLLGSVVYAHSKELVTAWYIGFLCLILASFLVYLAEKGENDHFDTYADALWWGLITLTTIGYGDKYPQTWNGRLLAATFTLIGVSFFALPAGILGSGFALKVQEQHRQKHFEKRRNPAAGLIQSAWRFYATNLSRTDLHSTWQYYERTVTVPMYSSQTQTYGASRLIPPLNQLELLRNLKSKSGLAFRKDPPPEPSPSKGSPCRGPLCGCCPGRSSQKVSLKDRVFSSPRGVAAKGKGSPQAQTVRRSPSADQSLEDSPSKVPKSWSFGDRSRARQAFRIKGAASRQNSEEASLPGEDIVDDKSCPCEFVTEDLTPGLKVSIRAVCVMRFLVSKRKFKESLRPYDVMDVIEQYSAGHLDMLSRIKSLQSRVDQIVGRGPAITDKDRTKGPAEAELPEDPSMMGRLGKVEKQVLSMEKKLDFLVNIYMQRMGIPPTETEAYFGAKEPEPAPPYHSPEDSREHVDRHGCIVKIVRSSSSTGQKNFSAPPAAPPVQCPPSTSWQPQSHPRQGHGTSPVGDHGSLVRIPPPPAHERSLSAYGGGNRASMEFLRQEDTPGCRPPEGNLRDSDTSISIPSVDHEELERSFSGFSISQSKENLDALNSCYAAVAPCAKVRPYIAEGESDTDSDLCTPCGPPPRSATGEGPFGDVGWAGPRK
T1 sequence (O43525 whole entry): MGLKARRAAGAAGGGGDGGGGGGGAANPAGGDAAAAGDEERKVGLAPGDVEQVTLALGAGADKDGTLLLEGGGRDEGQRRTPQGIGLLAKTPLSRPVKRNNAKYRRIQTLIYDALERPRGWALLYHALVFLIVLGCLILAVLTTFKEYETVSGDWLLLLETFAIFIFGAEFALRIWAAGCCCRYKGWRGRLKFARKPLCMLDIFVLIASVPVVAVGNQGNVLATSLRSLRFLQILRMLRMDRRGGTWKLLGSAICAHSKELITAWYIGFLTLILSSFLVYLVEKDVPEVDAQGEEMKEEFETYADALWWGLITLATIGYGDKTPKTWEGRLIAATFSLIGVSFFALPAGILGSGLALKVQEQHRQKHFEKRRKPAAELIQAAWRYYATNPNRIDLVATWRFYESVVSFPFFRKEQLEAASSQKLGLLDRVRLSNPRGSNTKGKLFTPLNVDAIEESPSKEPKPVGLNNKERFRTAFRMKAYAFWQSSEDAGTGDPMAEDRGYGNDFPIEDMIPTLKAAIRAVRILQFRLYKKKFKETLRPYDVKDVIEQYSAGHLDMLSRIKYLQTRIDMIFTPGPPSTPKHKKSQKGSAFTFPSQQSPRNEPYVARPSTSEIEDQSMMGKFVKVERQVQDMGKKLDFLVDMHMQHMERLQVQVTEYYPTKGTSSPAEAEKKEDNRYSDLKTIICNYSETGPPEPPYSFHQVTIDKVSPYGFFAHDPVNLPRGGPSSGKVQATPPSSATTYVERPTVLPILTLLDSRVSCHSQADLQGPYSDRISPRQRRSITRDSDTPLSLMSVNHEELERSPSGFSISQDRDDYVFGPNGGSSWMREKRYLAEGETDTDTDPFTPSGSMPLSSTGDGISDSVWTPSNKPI

As to “5-pyrimidinecarboxamide, 4-[1-(4-fluorophenyl)cyclopentyl]-N,N-bis(1-methylethyl)-2-(3-methyl-1-piperidinyl)- [Example 224]”, the EC50 (hQ23 cells) was 39 nM.

As for `CC1CCCN(c2ncc(C(=O)N3CCc4ccccc4C3)c(C3(c4ccccc4)CC3)n2)C1` (stereo not shown) [Example 25, isoquinoline, 1,2,3,4-tetrahydro-2-[[2-(3-methyl-1-piperidinyl)-4-(1-phenylcyclopropyl)-5-pyrimidinyl]carbonyl]-], the EC50 (Table 2, HEK-293) is 945 nM.

Under “Table 2, HEK-293”, `CC1CCN(c2ncc(C(=O)N3CCc4ccccc4C3)c(C3(c4ccccc4)CC3)n2)CC1` [Example 26, isoquinoline, 1,2,3,4-tetrahydro-2-[[2-(4-methyl-1-piperidinyl)-4-(1-phenylcyclopropyl)-5-pyrimidinyl]carbonyl]-] came in with an EC50 of 546 nM.

For the molecule `CCN(C(=O)c1cnc(N2CCN(C)CC2)nc1C1(c2ccccc2)CC1)C1CCCCC1` [Example 27, 5-pyrimidinecarboxamide, N-cyclohexyl-N-ethyl-2-(4-methyl-1-piperazinyl)-4-(1-phenylcyclopropyl)-], a half-maximal effect (Table 2, HEK-293) (EC50) was put at 470 nM.

Consider `CN(C)CCNc1ncc(C(=O)N(C)CCc2ccccc2)c(C2(c3ccccc3)CC2)n1` [Example 28, 5-pyrimidinecarboxamide, 2-[[2-(dimethylamino)ethyl]amino]-N-methyl-4-(1-phenylcyclopropyl)-N-(2-phenylethyl)-], for which the EC50 (Table 2, HEK-293) was 301 nM.

For the molecule `CCN(Cc1ccccc1)C(=O)c1cnc(NC2CCC(C)CC2)nc1C1(c2ccccc2)CC1` (stereo not shown) [Example 29, 5-pyrimidinecarboxamide, N-ethyl-2-[(4-methylcyclohexyl)amino]-4-(1-phenylcyclopropyl)-N-(phenylmethyl)-], it took 607 nM to reach a half-maximal effect (Table 2, HEK-293) (EC50). Compared with the last molecule, the EC50 is about 2-fold higher.

For the setting “Table 2, HEK-293”, `CCN(Cc1ccccc1)C(=O)c1cnc(N2CCCC(C)C2)nc1C1(c2ccccc2)CC1` (stereo not shown) [Example 30, 5-pyrimidinecarboxamide, N-ethyl-2-(3-methyl-1-piperidinyl)-4-(1-phenylcyclopropyl)-N-(phenylmethyl)-] registered an EC50 of 634 nM.

Consider `CCN(Cc1ccccc1)C(=O)c1cnc(N2CCC(C)CC2)nc1C1(c2ccccc2)CC1` [Example 31, 5-pyrimidinecarboxamide, N-ethyl-2-(4-methyl-1-piperidinyl)-4-(1-phenylcyclopropyl)-N-(phenylmethyl)-], for which the EC50 (Table 2, HEK-293) is 475 nM.

Molecule `O=C(NCc1ccc2c(c1)OCO2)c1cnc(N2CCCC2)nc1C1(c2ccccc2)CC1` [Example 32, 5-pyrimidinecarboxamide, N-(1,3-benzodioxol-5-ylmethyl)-4-(1-phenylcyclopropyl)-2-(1-pyrrolidinyl)-] registered an EC50 (Table 2, HEK-293) of 413 nM. The EC50 values of the last two molecules are within 1.5-fold of each other.

Consider `CC1CCC(Nc2ncc(C(=O)N[C@H](C)c3cccc4ccccc34)c(C3(c4ccccc4)CC3)n2)CC1` (stereo partly drawn) [Example 33, 5-pyrimidinecarboxamide, 2-[(4-methylcyclohexyl)amino]-N-[(1R)-1-(1-naphthalenyl)ethyl]-4-(1-phenylcyclopropyl)-], for which the midpoint of the response (Table 2, HEK-293), the EC50, lay at 293 nM.

`CC1CCCN(c2ncc(C(=O)N[C@H](C)c3cccc4ccccc34)c(C3(c4ccccc4)CC3)n2)C1` (stereo partly drawn) [Example 34, 5-pyrimidinecarboxamide, 2-(3-methyl-1-piperidinyl)-N-[(1R)-1-(1-naphthalenyl)ethyl]-4-(1-phenylcyclopropyl)-] had an EC50 (Table 2, HEK-293) of 107 nM.

Under “Table 2, HEK-293”, `CC1CCN(c2ncc(C(=O)N[C@H](C)c3cccc4ccccc34)c(C3(c4ccccc4)CC3)n2)CC1` [Example 35, 5-pyrimidinecarboxamide, 2-(4-methyl-1-piperidinyl)-N-[(1R)-1-(1-naphthalenyl)ethyl]-4-(1-phenylcyclopropyl)-] showed an EC50 of 212 nM. Compared with the last molecule, the EC50 is about 2-fold higher.

On to `CC1CCC(Nc2ncc(C(=O)NCc3cccc4ccccc34)c(C3(c4ccccc4)CC3)n2)CC1` (stereo not shown) [Example 36, 5-pyrimidinecarboxamide, 2-[(4-methylcyclohexyl)amino]-N-(1-naphthalenylmethyl)-4-(1-phenylcyclopropyl)-], for which, for the setting “Table 2, HEK-293”, the midpoint of the response, the EC50, lay at 586 nM. Compared with the last molecule, the EC50 is about 2.8-fold higher.

Under “Table 2, HEK-293”, `CC1CCCN(c2ncc(C(=O)NCc3cccc4ccccc34)c(C3(c4ccccc4)CC3)n2)C1` (stereo not shown) [Example 37, 5-pyrimidinecarboxamide, 2-(3-methyl-1-piperidinyl)-N-(1-naphthalenylmethyl)-4-(1-phenylcyclopropyl)-] registered an EC50 of 214 nM.

Turning to `CC1CCN(c2ncc(C(=O)NCc3cccc4ccccc34)c(C3(c4ccccc4)CC3)n2)CC1` [Example 38, 5-pyrimidinecarboxamide, 2-(4-methyl-1-piperidinyl)-N-(1-naphthalenylmethyl)-4-(1-phenylcyclopropyl)-], where the note is “Table 2, HEK-293”, the EC50 turned out to be 381 nM. This EC50 lies about 1.8-fold higher than the previous one.

For `CC1CCC(Nc2ncc(C(=O)NCc3ccc(Cl)cc3Cl)c(C3(c4ccccc4)CC3)n2)CC1` (stereo not shown) [Example 39, 5-pyrimidinecarboxamide, N-[(2,4-dichlorophenyl)methyl]-2-[(4-methylcyclohexyl)amino]-4-(1-phenylcyclopropyl)-], the EC50 (Table 2, HEK-293) is 551 nM. This EC50 and that of the molecule before are within 1.5-fold of each other.

Where the note is “Table 2, HEK-293”, `CC1CCCN(c2ncc(C(=O)NCc3ccc(Cl)cc3Cl)c(C3(c4ccccc4)CC3)n2)C1` (stereo not shown) [Example 40, 5-pyrimidinecarboxamide, N-[(2,4-dichlorophenyl)methyl]-2-(3-methyl-1-piperidinyl)-4-(1-phenylcyclopropyl)-] gave an EC50 of 326 nM.

`CC1CCN(c2ncc(C(=O)NCc3ccc(Cl)cc3Cl)c(C3(c4ccccc4)CC3)n2)CC1` [Example 41, 5-pyrimidinecarboxamide, N-[(2,4-dichlorophenyl)methyl]-2-(4-methyl-1-piperidinyl)-4-(1-phenylcyclopropyl)-] gave an EC50 (Table 2, HEK-293) of 220 nM.

`CC1CCC(Nc2ncc(C(=O)NCc3ccc(F)cc3F)c(C3(c4ccccc4)CC3)n2)CC1` (stereo not shown) [Example 42, 5-pyrimidinecarboxamide, N-[(2,4-difluorophenyl)methyl]-2-[(4-methylcyclohexyl)amino]-4-(1-phenylcyclopropyl)-]: under “Table 2, HEK-293”, the EC50 was 413 nM.

On to `CC1CCN(c2ncc(C(=O)NCc3ccc(F)cc3F)c(C3(c4ccccc4)CC3)n2)CC1` [Example 43, 5-pyrimidinecarboxamide, N-[(2,4-difluorophenyl)methyl]-2-(4-methyl-1-piperidinyl)-4-(1-phenylcyclopropyl)-], for which, where the note is “Table 2, HEK-293”, the EC50 was 919 nM.

Where the note is “Table 2, HEK-293”, `CC1CCC(Nc2ncc(C(=O)NCc3cc(F)cc(C(F)(F)F)c3)c(C3(c4ccccc4)CC3)n2)CC1` (stereo not shown) [Example 44, 5-pyrimidinecarboxamide, N-[[3-fluoro-5-(trifluoromethyl)phenyl]methyl]-2-[(4-methylcyclohexyl)amino]-4-(1-phenylcyclopropyl)-] showed an EC50 of 44 nM.

Take `O=C(NCc1cc(F)cc(C(F)(F)F)c1)c1cnc(N2CCCC2)nc1C1(c2ccccc2)CC1` [Example 45, 5-pyrimidinecarboxamide, N-[[3-fluoro-5-(trifluoromethyl)phenyl]methyl]-4-(1-phenylcyclopropyl)-2-(1-pyrrolidinyl)-]: the EC50 (Table 2, HEK-293) is 209 nM. This EC50 is about 4.8-fold higher than that of the molecule before.

`CN1CCN(c2ncc(C(=O)NCc3cc(F)cc(C(F)(F)F)c3)c(C3(c4ccccc4)CC3)n2)CC1` [Example 46, 5-pyrimidinecarboxamide, N-[[3-fluoro-5-(trifluoromethyl)phenyl]methyl]-2-(4-methyl-1-piperazinyl)-4-(1-phenylcyclopropyl)-] gave an EC50 (Table 2, HEK-293) of 384 nM.

In turn, `CC1CCCN(c2ncc(C(=O)NCc3cc(F)cc(C(F)(F)F)c3)c(C3(c4ccccc4)CC3)n2)C1` (stereo not shown) [Example 47, 5-pyrimidinecarboxamide, N-[[3-fluoro-5-(trifluoromethyl)phenyl]methyl]-2-(3-methyl-1-piperidinyl)-4-(1-phenylcyclopropyl)-] showed an EC50 (Table 2, HEK-293) of 41 nM.

The molecule `CC1CCN(c2ncc(C(=O)NCc3cc(F)cc(C(F)(F)F)c3)c(C3(c4ccccc4)CC3)n2)CC1` [Example 48, 5-pyrimidinecarboxamide, N-[[3-fluoro-5-(trifluoromethyl)phenyl]methyl]-2-(4-methyl-1-piperidinyl)-4-(1-phenylcyclopropyl)-] returned an EC50 (Table 2, HEK-293) of 297 nM.
